Measured values: patent publication US20250084039A1, “4-SUBSTITUTED AMINOISOQUINOLINE DERIVATIVES” (Purdue Research Foundation, priority 2016, published 2025)
Blank lines part the entries; values can stand above or below the molecule they belong to.

Tests used:
Assay in all cases: Reaction Biology HotSpot kinase assay
Type in all cases: biochemical
c-Src = c-Src (Homo sapiens (Human), UniProt P12931); conditions: 500 nM compound; for inhibition at 0.5 µM: read-out: Percentage kinase inhibition c-Src
Sequence of c-Src (P12931 whole entry, looked up): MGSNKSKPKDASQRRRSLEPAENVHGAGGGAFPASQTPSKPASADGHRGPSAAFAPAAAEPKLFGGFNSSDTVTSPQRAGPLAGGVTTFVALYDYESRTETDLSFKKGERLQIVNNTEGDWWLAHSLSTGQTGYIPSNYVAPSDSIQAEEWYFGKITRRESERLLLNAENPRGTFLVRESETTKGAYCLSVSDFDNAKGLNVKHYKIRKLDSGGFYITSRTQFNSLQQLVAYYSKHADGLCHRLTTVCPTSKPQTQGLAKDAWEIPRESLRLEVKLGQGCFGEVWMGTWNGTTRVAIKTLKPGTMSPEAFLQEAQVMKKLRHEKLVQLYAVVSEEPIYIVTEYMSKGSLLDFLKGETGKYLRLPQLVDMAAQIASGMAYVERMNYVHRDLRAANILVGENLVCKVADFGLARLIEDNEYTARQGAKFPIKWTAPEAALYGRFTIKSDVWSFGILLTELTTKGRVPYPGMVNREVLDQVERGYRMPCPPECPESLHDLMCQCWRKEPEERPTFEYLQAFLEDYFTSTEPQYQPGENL
Outline: (§1)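 Single-point screen, 500 nM cpd; 20 min preinc with enzyme/substrate; start with ATP + 33P-ATP, 100 μM final; 2 h RT; P81 filter capture. Buffer: 20 mM HEPES pH 7.5, 10 mM MgCl2, 1 mM EGTA, 0.02% Brij35, 1% DMSO. Data as % activity vs DMSO.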

KSR1 = KSR1 (Homo sapiens (Human), UniProt Q8IVT5); conditions: 500 nM compound; for inhibition at 0.5 µM: read-out: Percentage kinase inhibition KSR1
Outline: as §1

PDK1/PDHK1 = PDK1/PDHK1 (Homo sapiens (Human), UniProt Q15118); conditions: 500 nM compound; for inhibition at 0.5 µM: read-out: Percentage kinase inhibition PDK1/PDHK1
Outline: as §1

MEKK1 = MEKK1 (Homo sapiens (Human), UniProt Q13233); conditions: 500 nM compound; for inhibition at 0.5 µM: read-out: Percentage kinase inhibition MEKK1
Outline: as §1

DDR2 = DDR2 (Homo sapiens (Human), UniProt Q16832); conditions: 500 nM compound; for inhibition at 0.5 µM: read-out: Percentage kinase inhibition DDR2
Outline: as §1

FER = FER (Homo sapiens (Human), UniProt P16591); conditions: 500 nM compound; for inhibition at 0.5 µM: read-out: Percentage kinase inhibition FER
Outline: as §1

LRRK2 = LRRK2 (Homo sapiens (Human), UniProt Q5S007); conditions: 500 nM compound; for inhibition at 0.5 µM: read-out: Percentage kinase inhibition LRRK2
Outline: as §1

BLK = BLK (Homo sapiens (Human), UniProt P51451); conditions: 500 nM compound; for inhibition at 0.5 µM: read-out: Percentage kinase inhibition BLK
Sequence of BLK (P51451 whole entry): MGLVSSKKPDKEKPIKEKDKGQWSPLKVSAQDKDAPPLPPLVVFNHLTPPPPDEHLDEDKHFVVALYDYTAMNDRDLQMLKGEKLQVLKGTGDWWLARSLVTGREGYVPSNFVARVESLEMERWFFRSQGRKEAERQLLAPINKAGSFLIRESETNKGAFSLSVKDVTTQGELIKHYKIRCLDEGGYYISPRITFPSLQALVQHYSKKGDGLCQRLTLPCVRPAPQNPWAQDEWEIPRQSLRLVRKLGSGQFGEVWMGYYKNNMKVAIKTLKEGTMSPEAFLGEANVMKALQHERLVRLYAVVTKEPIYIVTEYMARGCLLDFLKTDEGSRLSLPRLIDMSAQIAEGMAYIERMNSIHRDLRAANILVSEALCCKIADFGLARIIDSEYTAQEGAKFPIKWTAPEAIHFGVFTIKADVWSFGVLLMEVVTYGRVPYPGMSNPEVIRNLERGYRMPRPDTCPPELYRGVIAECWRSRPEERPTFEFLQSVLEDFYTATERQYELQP
Outline: (§2)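 Each compound was tested at 500 nM, with 33P incorporation from ATP (100 μM final, including [γ-33P]ATP) measured by P81 paper capture after a 2 h room-temperature reaction.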

FMS = FMS (Homo sapiens (Human), UniProt P07333); conditions: 500 nM compound; for inhibition at 0.5 µM: read-out: Percentage kinase inhibition FMS
Outline: as §1

PAK1 = PAK1 (Homo sapiens (Human), UniProt Q13153); conditions: 500 nM compound; for inhibition at 0.5 µM: read-out: Percentage kinase inhibition PAK1
Outline: as §1

CSK = CSK (Homo sapiens (Human), UniProt P41240); conditions: 500 nM compound; for inhibition at 0.5 µM: read-out: Percentage kinase inhibition CSK
Outline: as §1

ITK = ITK (Homo sapiens (Human), UniProt Q08881); conditions: 500 nM compound; for inhibition at 0.5 µM: read-out: Percentage kinase inhibition ITK
Outline: as §1

MST4 = MST4 (Homo sapiens (Human), UniProt Q9P289); conditions: 500 nM compound; for inhibition at 0.5 µM: read-out: Percentage kinase inhibition MST4
Outline: as §1

CDK9/cyclin T2 = CDK9/cyclin T2 (Homo sapiens (Human), UniProt P50750); conditions: 500 nM compound; for inhibition at 0.5 µM: read-out: Percentage kinase inhibition CDK9/cyclin T2
Outline: as §1

SYK = SYK (Homo sapiens (Human), UniProt P43405); conditions: 500 nM compound; for inhibition at 0.5 µM: read-out: Percentage kinase inhibition SYK
Outline: as §1

CDK6/cyclin D3 = CDK6/cyclin D3 (Homo sapiens (Human), UniProt Q00534); conditions: 500 nM compound; for inhibition at 0.5 µM: read-out: Percentage kinase inhibition CDK6/cyclin D3
Sequence of CDK6/cyclin D3 (Q00534 whole entry): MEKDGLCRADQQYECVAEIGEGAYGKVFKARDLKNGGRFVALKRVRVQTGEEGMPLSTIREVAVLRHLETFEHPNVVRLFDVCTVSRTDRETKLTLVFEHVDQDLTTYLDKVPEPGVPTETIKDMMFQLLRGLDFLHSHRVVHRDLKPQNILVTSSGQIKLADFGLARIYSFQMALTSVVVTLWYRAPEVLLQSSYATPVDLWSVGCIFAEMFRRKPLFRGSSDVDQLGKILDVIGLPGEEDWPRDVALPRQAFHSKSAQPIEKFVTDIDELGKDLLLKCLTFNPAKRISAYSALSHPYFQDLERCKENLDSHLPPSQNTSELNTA
Sequence of CDK6/cyclin D3 (P30281 whole entry partner): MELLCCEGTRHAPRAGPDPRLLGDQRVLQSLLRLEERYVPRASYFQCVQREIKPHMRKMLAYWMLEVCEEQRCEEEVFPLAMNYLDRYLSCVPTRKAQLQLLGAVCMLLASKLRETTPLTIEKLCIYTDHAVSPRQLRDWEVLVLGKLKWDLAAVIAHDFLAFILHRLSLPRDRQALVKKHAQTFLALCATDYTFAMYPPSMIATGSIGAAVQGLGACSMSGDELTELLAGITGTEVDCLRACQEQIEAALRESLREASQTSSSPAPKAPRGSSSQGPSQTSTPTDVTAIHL
Outline: as §1

Aurora A = Aurora A (Homo sapiens (Human), UniProt O14965); conditions: 500 nM compound; for inhibition at 0.5 µM: read-out: Percentage kinase inhibition Aurora A
Sequence of Aurora A (O14965 whole entry): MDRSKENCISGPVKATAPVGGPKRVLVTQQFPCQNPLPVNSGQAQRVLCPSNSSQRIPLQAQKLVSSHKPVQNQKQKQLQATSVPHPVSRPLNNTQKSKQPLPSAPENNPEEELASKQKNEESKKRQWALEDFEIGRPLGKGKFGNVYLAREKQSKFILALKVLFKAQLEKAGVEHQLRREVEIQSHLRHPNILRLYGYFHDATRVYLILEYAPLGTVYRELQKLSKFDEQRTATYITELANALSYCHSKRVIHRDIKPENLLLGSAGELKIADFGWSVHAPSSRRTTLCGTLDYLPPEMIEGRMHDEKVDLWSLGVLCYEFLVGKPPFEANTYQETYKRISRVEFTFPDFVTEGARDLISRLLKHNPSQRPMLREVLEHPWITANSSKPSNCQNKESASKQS
Outline: as §2

PIM1 = PIM1 (Homo sapiens (Human), UniProt P11309); conditions: 500 nM compound; for inhibition at 0.5 µM: read-out: Percentage kinase inhibition PIM1
Sequence of PIM1 (P11309 whole entry): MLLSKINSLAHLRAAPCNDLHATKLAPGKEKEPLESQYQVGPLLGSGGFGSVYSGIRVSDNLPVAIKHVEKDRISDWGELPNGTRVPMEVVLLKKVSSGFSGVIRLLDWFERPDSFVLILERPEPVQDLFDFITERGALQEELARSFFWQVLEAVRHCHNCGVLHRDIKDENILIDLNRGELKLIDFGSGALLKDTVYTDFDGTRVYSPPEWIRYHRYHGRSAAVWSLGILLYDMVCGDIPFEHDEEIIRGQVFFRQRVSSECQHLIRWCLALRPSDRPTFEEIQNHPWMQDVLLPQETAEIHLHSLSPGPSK
Outline: as §1

JAK2 = JAK2 (Homo sapiens (Human), UniProt O60674); conditions: 500 nM compound; for inhibition at 0.5 µM: read-out: Percentage kinase inhibition JAK2
Sequence of JAK2 (O60674 whole entry): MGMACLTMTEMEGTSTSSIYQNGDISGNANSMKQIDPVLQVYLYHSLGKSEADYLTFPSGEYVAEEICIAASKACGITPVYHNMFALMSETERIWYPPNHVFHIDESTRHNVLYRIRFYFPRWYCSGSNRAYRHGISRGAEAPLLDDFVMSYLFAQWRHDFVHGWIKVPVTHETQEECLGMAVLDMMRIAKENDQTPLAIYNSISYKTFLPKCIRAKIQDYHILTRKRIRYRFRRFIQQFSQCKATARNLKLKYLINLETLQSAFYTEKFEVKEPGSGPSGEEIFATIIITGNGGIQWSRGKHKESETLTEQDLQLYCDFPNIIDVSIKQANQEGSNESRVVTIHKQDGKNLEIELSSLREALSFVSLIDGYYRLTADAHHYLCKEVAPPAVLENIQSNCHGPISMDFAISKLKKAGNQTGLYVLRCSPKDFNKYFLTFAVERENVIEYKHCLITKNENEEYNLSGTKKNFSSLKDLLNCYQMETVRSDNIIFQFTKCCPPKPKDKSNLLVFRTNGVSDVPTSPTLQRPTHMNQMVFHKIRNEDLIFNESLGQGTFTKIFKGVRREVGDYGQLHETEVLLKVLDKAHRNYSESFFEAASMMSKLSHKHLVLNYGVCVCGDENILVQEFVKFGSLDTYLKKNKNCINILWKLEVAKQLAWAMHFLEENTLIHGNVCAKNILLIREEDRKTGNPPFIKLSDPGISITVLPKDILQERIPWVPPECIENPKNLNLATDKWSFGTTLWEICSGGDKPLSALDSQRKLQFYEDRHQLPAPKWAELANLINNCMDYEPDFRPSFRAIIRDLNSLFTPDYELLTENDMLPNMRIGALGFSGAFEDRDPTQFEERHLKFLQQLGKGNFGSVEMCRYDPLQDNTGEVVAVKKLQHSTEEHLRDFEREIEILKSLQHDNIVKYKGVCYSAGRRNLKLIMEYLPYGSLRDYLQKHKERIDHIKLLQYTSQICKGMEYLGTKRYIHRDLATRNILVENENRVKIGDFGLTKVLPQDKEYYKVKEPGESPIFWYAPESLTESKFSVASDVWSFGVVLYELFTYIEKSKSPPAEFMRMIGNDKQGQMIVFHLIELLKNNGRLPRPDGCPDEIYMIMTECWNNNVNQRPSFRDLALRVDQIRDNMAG
Outline: as §1

PKD2/PRKD2 = PKD2/PRKD2 (Homo sapiens (Human), UniProt Q9BZL6); conditions: 500 nM compound; for inhibition at 0.5 µM: read-out: Percentage kinase inhibition PKD2/PRKD2
Outline: as §1

RAF1 = conditions: 500 nM compound
Outline: as §1

ERBB4/HER4 = ERBB4/HER4 (Homo sapiens (Human), UniProt Q15303); conditions: 500 nM compound; for inhibition at 0.5 µM: read-out: Percentage kinase inhibition ERBB4/HER4
Sequence of ERBB4/HER4 (Q15303 26-1308): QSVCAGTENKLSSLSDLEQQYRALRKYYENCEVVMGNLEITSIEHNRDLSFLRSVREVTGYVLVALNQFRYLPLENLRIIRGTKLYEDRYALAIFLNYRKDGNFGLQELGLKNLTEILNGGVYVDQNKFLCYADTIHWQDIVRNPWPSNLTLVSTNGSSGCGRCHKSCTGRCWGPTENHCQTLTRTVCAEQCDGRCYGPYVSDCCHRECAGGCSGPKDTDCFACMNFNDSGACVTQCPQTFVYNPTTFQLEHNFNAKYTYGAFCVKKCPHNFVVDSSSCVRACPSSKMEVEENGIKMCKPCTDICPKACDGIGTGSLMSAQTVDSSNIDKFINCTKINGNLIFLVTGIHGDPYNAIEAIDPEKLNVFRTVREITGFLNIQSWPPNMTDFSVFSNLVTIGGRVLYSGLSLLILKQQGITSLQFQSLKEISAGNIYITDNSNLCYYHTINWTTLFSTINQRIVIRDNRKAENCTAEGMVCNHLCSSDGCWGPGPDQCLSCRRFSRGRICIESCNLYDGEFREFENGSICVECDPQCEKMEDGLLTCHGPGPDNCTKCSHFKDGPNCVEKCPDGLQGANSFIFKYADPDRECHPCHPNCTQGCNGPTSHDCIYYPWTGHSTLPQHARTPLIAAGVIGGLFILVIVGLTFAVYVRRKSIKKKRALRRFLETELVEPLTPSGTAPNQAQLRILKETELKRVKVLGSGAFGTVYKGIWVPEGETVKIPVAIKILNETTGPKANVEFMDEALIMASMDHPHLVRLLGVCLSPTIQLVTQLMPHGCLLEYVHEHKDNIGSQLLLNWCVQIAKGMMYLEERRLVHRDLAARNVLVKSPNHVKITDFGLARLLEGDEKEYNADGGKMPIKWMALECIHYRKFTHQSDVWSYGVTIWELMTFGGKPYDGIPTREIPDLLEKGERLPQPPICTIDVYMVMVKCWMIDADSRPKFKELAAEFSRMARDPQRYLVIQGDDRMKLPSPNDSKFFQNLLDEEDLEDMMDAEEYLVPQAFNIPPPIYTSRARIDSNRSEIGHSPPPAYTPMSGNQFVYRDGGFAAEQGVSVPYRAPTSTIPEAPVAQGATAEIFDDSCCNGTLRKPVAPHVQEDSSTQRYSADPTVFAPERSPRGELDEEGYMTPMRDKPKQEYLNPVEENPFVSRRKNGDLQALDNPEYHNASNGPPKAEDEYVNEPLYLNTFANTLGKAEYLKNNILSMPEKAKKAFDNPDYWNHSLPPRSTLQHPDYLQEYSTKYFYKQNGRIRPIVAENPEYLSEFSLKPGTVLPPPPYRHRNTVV
Outline: as §1

P38a/MAPK14 = P38a/MAPK14 (Homo sapiens (Human), UniProt Q16539); conditions: 500 nM compound; for inhibition at 0.5 µM: read-out: Percentage kinase inhibition P38a/MAPK14
Outline: as §1

FRK/PTK5 = FRK/PTK5 (Homo sapiens (Human), UniProt P42685); conditions: 500 nM compound; for inhibition at 0.5 µM: read-out: Percentage kinase inhibition FRK/PTK5
Outline: as §1

CDK9/cyclin T1 = CDK9/cyclin T1 (Homo sapiens (Human), UniProt P50750); conditions: 500 nM compound; for inhibition at 0.5 µM: read-out: Percentage kinase inhibition CDK9/cyclin T1
Outline: as §1

IR = IR (Homo sapiens (Human), UniProt P06213); conditions: 500 nM compound; for inhibition at 0.5 µM: read-out: Percentage kinase inhibition IR
Outline: as §1

CDK2/cyclin A = CDK2/cyclin A (Homo sapiens (Human), UniProt P24941); conditions: 500 nM compound; for inhibition at 0.5 µM: read-out: Percentage kinase inhibition CDK2/cyclin A
Outline: as §2

ERK1 = ERK1 (Homo sapiens (Human), UniProt P27361); conditions: 500 nM compound; for inhibition at 0.5 µM: read-out: Percentage kinase inhibition ERK1
Outline: as §1

CDK4/cyclin D1 = CDK4/cyclin D1 (Homo sapiens (Human), UniProt P11802); conditions: 500 nM compound; for inhibition at 0.5 µM: read-out: Percentage kinase inhibition CDK4/cyclin D1
Outline: (§3)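 Phosphotransfer from [γ-33P]ATP was quantified after filter binding on P81 paper. Conditions: 20 mM HEPES pH 7.5, 10 mM MgCl2, 0.1 mM Na3VO4, 2 mM DTT, 0.02 mg/mL BSA; ATP 100 μM final; 2 h at room temperature. Compound was dosed at 500 nM.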

BRK = BRK (Homo sapiens (Human), UniProt Q13882); conditions: 500 nM compound; for inhibition at 0.5 µM: read-out: Percentage kinase inhibition BRK
Outline: as §3

TYK2 = TYK2 (Homo sapiens (Human), UniProt P29597); conditions: 500 nM compound; for inhibition at 0.5 µM: read-out: Percentage kinase inhibition TYK2
Outline: as §1

SMILES: Cc1ccc(C(=O)Nc2ccc(CN3CCN(C)CC3)c(C(F)(F)F)c2)cc1C#Cc1c(N)ncc2ccc(Cl)cc12 [HSN286]
inhibition at 0.5 µM (KSR1): 0%
inhibition at 0.5 µM (PDK1/PDHK1): 0%
inhibition at 0.5 µM (MEKK1): 6%
inhibition at 0.5 µM (DDR2): 77%
inhibition at 0.5 µM (FER): 0%
inhibition at 0.5 µM (LRRK2): 6%
inhibition at 0.5 µM (BLK): 100%
inhibition at 0.5 µM (FMS): 99%
inhibition at 0.5 µM (PAK1): 0%
inhibition at 0.5 µM (CSK): 93%
inhibition at 0.5 µM (ITK): 0%
inhibition at 0.5 µM (MST4): 0%
inhibition at 0.5 µM (CDK9/cyclin T2): 0%
inhibition at 0.5 µM (SYK): 0%
inhibition at 0.5 µM (CDK6/cyclin D3): 7%
inhibition at 0.5 µM (Aurora A): 0%
inhibition at 0.5 µM (PIM1): 0%
inhibition at 0.5 µM (JAK2): 67%
inhibition at 0.5 µM (PKD2/PRKD2): 7%
Percentage kinase inhibition RAF1 (RAF1): 94%
inhibition at 0.5 µM (ERBB4/HER4): 71%
inhibition at 0.5 µM (P38a/MAPK14): 81%
inhibition at 0.5 µM (FRK/PTK5): 95%
inhibition at 0.5 µM (CDK9/cyclin T1): 0%
inhibition at 0.5 µM (IR): 16%
inhibition at 0.5 µM (CDK2/cyclin A): 0%
inhibition at 0.5 µM (ERK1): 0%
inhibition at 0.5 µM (CDK4/cyclin D1): 0%
inhibition at 0.5 µM (BRK): 92%
inhibition at 0.5 µM (TYK2): 0%

SMILES: Cc1ccc(C(=O)Nc2ccc(CN3CCN(C)CC3)c(C(F)(F)F)c2)cc1C#Cc1cnc(N)c2ccccc12 [HSN334, 3-((1-aminoisoquinolin-4-yl)ethynyl)-4-methyl-N-(4-((4-methylpiperazin-1-yl)methyl)-3-(trifluoromethyl)phenyl)benzamide]
Percentage kinase inhibition RAF1 (RAF1): 96%

SMILES: Cc1ccc(C(=O)Nc2ccc(CN3CCN(C)CC3)c(C(F)(F)F)c2)cc1C#Cc1cnc(N)c2ncccc12 [HSN356, 3-((8-amino-1,7-naphthyridin-5-yl)ethynyl)-4-methyl-N-(4-((4-methylpiperazin-1-yl)methyl)-3-(trifluoromethyl)phenyl)benzamide]
Percentage kinase inhibition RAF1 (RAF1): 100%

Second part, the molecule after the results:

Percentage kinase inhibition c-Src (c-Src): 9%
Percentage kinase inhibition KSR1 (KSR1): 0%
Percentage kinase inhibition PDK1/PDHK1 (PDK1/PDHK1): 0%
Percentage kinase inhibition MEKK1 (MEKK1): 4%
Percentage kinase inhibition DDR2 (DDR2): 0%
Percentage kinase inhibition FER (FER): 0%
Percentage kinase inhibition LRRK2 (LRRK2): 40%
Percentage kinase inhibition BLK (BLK): 10%
Percentage kinase inhibition FMS (FMS): 35%
Percentage kinase inhibition PAK1 (PAK1): 1%
Percentage kinase inhibition CSK (CSK): 1%
Percentage kinase inhibition ITK (ITK): 0%
Percentage kinase inhibition MST4 (MST4): 0%
Percentage kinase inhibition CDK9/cyclin T2 (CDK9/cyclin T2): 65%
Percentage kinase inhibition SYK (SYK): 4%
Percentage kinase inhibition CDK6/cyclin D3 (CDK6/cyclin D3): 50%
Percentage kinase inhibition Aurora A (Aurora A): 19%
Percentage kinase inhibition PIM1 (PIM1): 34%
Percentage kinase inhibition JAK2 (JAK2): 0%
Percentage kinase inhibition PKD2/PRKD2 (PKD2/PRKD2): 6%
Percentage kinase inhibition RAF1 (RAF1): 5%
Percentage kinase inhibition ERBB4/HER4 (ERBB4/HER4): 0%
Percentage kinase inhibition P38a/MAPK14 (P38a/MAPK14): 0%
Percentage kinase inhibition FRK/PTK5 (FRK/PTK5): 0%
Percentage kinase inhibition CDK9/cyclin T1 (CDK9/cyclin T1): 41%
Percentage kinase inhibition IR (IR): 9%
Percentage kinase inhibition CDK2/cyclin A (CDK2/cyclin A): 18%
Percentage kinase inhibition ERK1 (ERK1): 5%
Percentage kinase inhibition CDK4/cyclin D1 (CDK4/cyclin D1): 16%
Percentage kinase inhibition BRK (BRK): 18%
Percentage kinase inhibition TYK2 (TYK2): 2%
SMILES: CN(C)CC(O)CNC(=O)c1ccc(C#Cc2c(N)ncc3ccc(Cl)cc23)cc1 (centres unmarked) [HSM1702]

inhibition at 0.5 µM (c-Src): 0%
Percentage kinase inhibition RAF1 (RAF1): 90%
SMILES: Cc1ccc(C(=O)Nc2ccc(CN3CCN(C)CC3)c(C(F)(F)F)c2)cc1C#Cc1cc(N)nc2ccccc12 [HSN285]

inhibition at 0.5 µM (c-Src): 30%
inhibition at 0.5 µM (KSR1): 0%
inhibition at 0.5 µM (PDK1/PDHK1): 1%
inhibition at 0.5 µM (MEKK1): 4%
inhibition at 0.5 µM (DDR2): 81%
inhibition at 0.5 µM (FER): 12%
inhibition at 0.5 µM (LRRK2): 0%
inhibition at 0.5 µM (BLK): 30%
inhibition at 0.5 µM (FMS): 93%
inhibition at 0.5 µM (PAK1): 0%
inhibition at 0.5 µM (CSK): 0%
inhibition at 0.5 µM (ITK): 1%
inhibition at 0.5 µM (MST4): 0%
inhibition at 0.5 µM (CDK9/cyclin T2): 0%
inhibition at 0.5 µM (SYK): 0%
inhibition at 0.5 µM (CDK6/cyclin D3): 0%
inhibition at 0.5 µM (Aurora A): 0%
inhibition at 0.5 µM (PIM1): 0%
inhibition at 0.5 µM (JAK2): 0%
inhibition at 0.5 µM (PKD2/PRKD2): 0%
inhibition at 0.5 µM (ERBB4/HER4): 7%
inhibition at 0.5 µM (P38a/MAPK14): 5%
inhibition at 0.5 µM (FRK/PTK5): 49%
inhibition at 0.5 µM (CDK9/cyclin T1): 0%
inhibition at 0.5 µM (IR): 9%
inhibition at 0.5 µM (CDK2/cyclin A): 0%
inhibition at 0.5 µM (ERK1): 0%
inhibition at 0.5 µM (CDK4/cyclin D1): 0%
inhibition at 0.5 µM (BRK): 0%
inhibition at 0.5 µM (TYK2): 0%
SMILES: COc1cc2nc(N)nc(C#Cc3cc(C(=O)Nc4ccc(CN5CCN(C)CC5)c(C(F)(F)F)c4)ccc3C)c2cc1OC [HSN325]
